Experimental findings from US12023319B2, “Carboxylic acid aromatic amides” (priority 2016, dated 2024) are described below.

The test addresses T1, human Bradykinin B1 receptor (Homo sapiens, UniProt P46663).
T1 construct: host or cells: CHO-K1
T1 sequence (P46663 1-353): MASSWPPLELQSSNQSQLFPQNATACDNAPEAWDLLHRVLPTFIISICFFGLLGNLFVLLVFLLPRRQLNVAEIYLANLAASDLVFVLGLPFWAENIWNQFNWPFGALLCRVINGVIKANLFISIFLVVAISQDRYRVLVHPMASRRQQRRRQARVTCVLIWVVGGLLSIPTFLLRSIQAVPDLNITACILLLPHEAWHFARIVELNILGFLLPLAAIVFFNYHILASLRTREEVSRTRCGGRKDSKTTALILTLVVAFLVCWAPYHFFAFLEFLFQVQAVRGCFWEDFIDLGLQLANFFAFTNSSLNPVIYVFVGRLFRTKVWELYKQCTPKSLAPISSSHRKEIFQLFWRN
Description: Calcium flux assay (FLIPR), CHO-K1 cells expressing human Bradykinin B1 receptor, absence of 0.1% BSA (hB1 free IC50). The format is cell-based. The conditions noted are these: absence of 0.1% BSA in assay buffer. An outline of the steps:
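CHO-K1 hB1-D1 cells, dye-loaded, given compounds (8 concentrations, triplicate, 1% DMSO) 30 min at 28° C, then stimulated with selective B1 agonist peptide; Ca2+ fluorescence read at 538 nm on FLIPR. Peak response normalised to DMSO and 20 µM Lys-(Des-Arg-Leu)-Bradykinin full inhibition; IC50 fitted.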
`O=C(O)c1cc(NC(=O)C2(c3ccc(C(F)(F)F)cc3F)CC2)cc(F)c1-c1cnn(C2CCC2)c1` [Example 42, 2-(1-Cyclobutyl-1H-pyrazol-4-yl)-3-fluoro-5-[({1-[2-fluoro-4-(trifluoromethyl)phenyl]cyclopropyl}carbonyl)amino]benzoic acid]: the IC50 came to 6.3 nM.
With `O=C(O)c1cc(NC(=O)C2(c3ccc(C(F)(F)F)cc3F)CC2)ccc1-c1ccc(C(F)(F)F)nc1` [Example 6, 5-[({1-[2-Fluoro-4-(trifluoromethyl)phenyl]cyclopropyl}carbonyl)amino]-2-[6-(trifluoromethyl)pyridin-3-yl]benzoic acid] the figure was 210 nM; with `CCC(F)(F)c1ccc(-c2ccc(NC(=O)C3(c4ccc(C(F)(F)F)cc4F)CC3)cc2C(=O)O)cn1` [Example 2, 2-[6-(1,1-Difluoropropyl)pyridin-3-yl]-5-[({1-[2-fluoro-4-(trifluoromethyl)-phenyl]cyclopropyl}carbonyl)amino]benzoic acid], 24 nM.
With `O=C(O)c1cc(NC(=O)C2(c3ccc(OC(F)(F)F)cc3F)CC2)ccc1-c1ccc(C(F)F)nc1` [Example 5, 2-[6-(Difluoromethyl)pyridin-3-yl]-5-[({1-[2-fluoro-4-(trifluoromethoxy)phenyl]cyclopropyl}carbonyl)amino]benzoic acid] the figure was 86 nM; with `O=C(O)c1cc(NC(=O)C2(c3ccc(C(F)(F)F)cc3F)CC2)ccc1-c1cc2ccccc2s1` [Example 1, 2-(1-Benzothiophen-2-yl)-5-[({1-[2-fluoro-4-(trifluoromethyl)phenyl]cyclopropyl}carbonyl)amino]benzoic acid], 6.5 nM; with `O=C(O)c1cc(NC(=O)C2(c3ccc(C(F)(F)F)cc3F)CC2)ccc1-c1cnn(C2CCC2)c1` [Example 3, 2-(1-Cyclobutyl-1H-pyrazol-4-yl)-5-[({1-[2-fluoro-4-(trifluoromethyl)phenyl]cyclopropyl}carbonyl)amino]benzoic acid], 18 nM.
With `O=C(O)c1cc(NC(=O)C2(c3ccc(C(F)(F)F)cc3F)CC2)cc(F)c1-c1ccc(C(F)(F)F)nc1` [Example 29, 3-Fluoro-5-[({1-[2-fluoro-4-(trifluoromethyl)phenyl]cyclopropyl}carbonyl)amino]-2-[6-(trifluoromethyl)pyridin-3-yl]benzoic acid], the IC50 was 13 nM.
